The source of these data is ChEMBL document CHEMBL1143120, “Characterization of the two major CYP450 metabolites of ozonide (1,2,4-trioxolane) OZ277” (Bioorg Med Chem Lett, 2008).

For one data set, the system named is Plasmodium falciparum. The data set can be described thus: Antimalarial activity against Plasmodium falciparum K1. It counts as functional, organism-based.
Data set [1] can be described thus: Distribution coefficient, log D of the compound. It counts as physicochemical. The note with it: octanol/water.

Converted amounts (≈) assume the structure as drawn.

`CC(C)(N)CNC(=O)C[C@H]1CC[C@]2(CC1)OO[C@]1(O2)C2CC3CC1C[C@](O)(C3)C2` displayed a 50% inhibitory concentration (IC50) with Plasmodium falciparum of over 0.1 µg/mL. Also, the logD in data set [1] turned out to be 1.8.
`CC(C)(N)CNC(=O)C[C@H]1CC[C@]2(CC1)OO[C@]1(O2)C2CC3CC(C2)CC1C3` [OZ277]: the IC50 in the data set on Plasmodium falciparum stood at 0.001 µg/mL (≈ 0.00255 µM). Besides, the pH-dependent lipophilicity (logD) in data set [1] was 3.2.
`CC(C)(N)CNC(=O)C[C@H]1CC[C@]2(CC1)OO[C@]1(O2)C2CC3CC1C[C@@](O)(C3)C2` had an IC50 in the data set on Plasmodium falciparum of over 0.1 µg/mL. Further, the logD in data set [1] was 1.8.

In general, IC50 refers to the midpoint of a concentration-inhibition curve. A lower IC50 goes with greater potency. Usually logD stands for the decadic logarithm of the distribution of all forms, ionised or not, between an organic phase and buffer at a given pH. High values mean a more lipophilic compound, low ones a more hydrophilic compound.
